Read-outs that look alike come from different tables or passages of the source.
Experiments:
[1] = target: M3 receptor (Homo sapiens, UniProt P20309); assay: BRET real-time monitoring of G-protein activation via M3 in HEK293T/17 cells; format: cell-based; set-up: expressed in transfected cells; host or cells: HEK293T/17 cells, transient transfection; settings: for Activation of Gαq/11 types: saturating concentration (100 μM; 1 mM for JB-12-2, JB-13-1); for Response at Gα15: saturating concentration
M3 receptor, sequence (P20309 whole entry): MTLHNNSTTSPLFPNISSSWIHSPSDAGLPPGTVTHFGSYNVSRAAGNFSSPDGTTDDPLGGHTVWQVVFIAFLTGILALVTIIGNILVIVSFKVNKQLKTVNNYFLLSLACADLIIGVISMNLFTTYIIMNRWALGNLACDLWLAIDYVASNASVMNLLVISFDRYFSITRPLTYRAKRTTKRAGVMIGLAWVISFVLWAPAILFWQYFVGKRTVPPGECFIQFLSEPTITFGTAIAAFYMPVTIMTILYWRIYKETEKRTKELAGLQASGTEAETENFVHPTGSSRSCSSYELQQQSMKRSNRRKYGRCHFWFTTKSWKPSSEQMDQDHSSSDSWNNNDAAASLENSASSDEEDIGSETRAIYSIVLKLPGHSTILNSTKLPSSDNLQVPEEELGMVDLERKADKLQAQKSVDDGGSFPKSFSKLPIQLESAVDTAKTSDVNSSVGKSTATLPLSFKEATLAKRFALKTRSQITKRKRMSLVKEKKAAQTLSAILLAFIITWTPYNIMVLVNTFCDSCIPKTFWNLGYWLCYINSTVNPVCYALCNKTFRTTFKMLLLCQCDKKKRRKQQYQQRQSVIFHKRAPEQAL
Method: HE/K293T17 cells were obtained from The Global Bioresource Center ATCC (Manassas, VA, USA). Cells were grown in 100 mm petri dishes in Dulbecco’s modified Eagle’s medium (DMEM) supplemented with 10% fetal bovine serum (FBS), MEM non-essential amino acids, 1 mM sodium pyruvate, and antibiotics (100 units/ml penicillin and 100 μg/ml streptomycin) at 37 °C in a humidified incubator containing 5% CO2[41]. Transfection was performed according to Masuho et al.[41]. […] Gα14 subunit was co-transfected with Ric-8A chaperone (0.21 μg). Cells were cotransfected with a pcDNA3.1 construct encoding the catalytic subunit of pertussis toxin (PTX-S1) (0.21 μg) and constructs encoding Gα15, Gα14, Gα11, Gαq to ensure that the small BRET signals were not contaminated by the possible recruitment of endogenous Gαi/o proteins. The empty vector pcDNA3.1 was used to normalize the amount of DNA in each transfection.
To examine the activation of G-protein signalling in live cells, agonist-dependent cellular measurements of BRET between Venus-Gβ1γ2 and masGRK3ct-Nluc were performed as described by Masuho et al.[41]. […] Cells were harvested by centrifugation at 500×g for 5 min and were resuspended in BRET buffer. About 50,000 to 100,000 cells per well were distributed in 96-well flat-bottomed white microplates (Greiner Bio-One) in a volume of 25 µl. […] BRET measurements were made with a microplate reader (POLARstar Omega, BMG Labtech) equipped with two emission photomultiplier tubes, which enabled the detection of two emissions simultaneously with the highest possible resolution of 20 ms per data point. All measurements were performed at room temperature. […] The average baseline value (basal BRET ratio) recorded before stimulation of cells with an agonist was subtracted from the experimental BRET signal values to obtain the ΔBRET ratio.

[2] = target: T1, M4 muscarinic receptor (Homo sapiens, UniProt P08173); assay: [3H]NMS competition binding, membranes from CHO cells expressing M4
T1 construct: membranes
T1 sequence (P08173 1-479): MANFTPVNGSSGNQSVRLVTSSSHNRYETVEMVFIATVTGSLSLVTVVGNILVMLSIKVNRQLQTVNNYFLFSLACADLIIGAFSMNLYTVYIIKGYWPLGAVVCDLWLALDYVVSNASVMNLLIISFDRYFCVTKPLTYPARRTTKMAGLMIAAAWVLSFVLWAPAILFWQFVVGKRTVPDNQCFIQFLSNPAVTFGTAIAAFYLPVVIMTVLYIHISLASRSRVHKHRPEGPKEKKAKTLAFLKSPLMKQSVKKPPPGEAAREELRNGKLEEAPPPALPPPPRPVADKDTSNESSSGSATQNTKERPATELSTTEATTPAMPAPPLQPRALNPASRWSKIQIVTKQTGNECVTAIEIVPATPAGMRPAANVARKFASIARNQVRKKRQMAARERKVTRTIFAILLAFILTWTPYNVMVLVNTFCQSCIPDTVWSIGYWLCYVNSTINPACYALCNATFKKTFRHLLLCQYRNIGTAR
Method: (§1) Cells were cultured as described previously by Randakova et al.[33]. […] The medium was supplemented with 5 mM butyrate for the last 24 h of culture to increase receptor expression. Cells were washed with (phosphate-buffered saline (PBS), mechanically harvested by scraper and centrifugated 1000 × g for 5 min. Cell pellets were kept at − 80 °C.
(§2) Membranes were prepared as described previously by Randakova et al.[33]. Cells harvested from twenty 100 mm petri dishes (CHO) or 30 ml of cell suspension (Sf9) were suspended in 20 ml of ice-cold incubation medium (100 mM NaCl, 20 mM Na-HEPES, 10 mM MgCl2, pH 7.4) supplemented with 10 mM EDTA and homogenized on ice by two 30‐s strokes using a Polytron homogenizer (Ultra-Turrax; Janke & Kunkel GmbH & Co. KG, IKA-Labortechnik, Staufen, Germany) with a 30 s pause between strokes. Cell homogenates were centrifuged for 5 min at 1000×g to remove whole cells and cell nuclei. The resulting supernatants were centrifuged for 30 min at 30,000×g. Pellets were suspended in a fresh incubation medium, incubated on ice for 30 min, and centrifuged again. The resulting membrane pellets were kept at − 80 °C until assayed within 10 weeks.
(§3) Non-specific binding was determined in the presence of 10 μM unlabelled atropine. Incubations were terminated by filtration through filtration plates multiscreen 96 well Harvest (Merck Millipore) using a Brandel cell harvester (Brandel, Gaithersburg, MD, USA). Filtration plates were dried in a microwave oven, and then 40 μl of liquid scintillator Rotiscint eco plus (Roth) was added. The filtration plates were counted in the Microbeta scintillation counter (PerkinElmer). […] The inhibition constant KI was calculated according to Eq. (2).
(§4) Inhibition constants KI were calculated according to Eq. (2).2 KI=IC50/1+D/KD where IC50 is calculated according to Eq.

[3] = target: T2, M1 muscarinic receptor (Homo sapiens, UniProt P11229); assay: [3H]NMS competition binding, membranes from CHO cells expressing M1; settings: competition with [3H]NMS, mean ± SD, three experiments, read-out: Binding affinity, negative logarithm of Ki (converted)
T2 construct: membranes
T2 sequence (P11229 1-460): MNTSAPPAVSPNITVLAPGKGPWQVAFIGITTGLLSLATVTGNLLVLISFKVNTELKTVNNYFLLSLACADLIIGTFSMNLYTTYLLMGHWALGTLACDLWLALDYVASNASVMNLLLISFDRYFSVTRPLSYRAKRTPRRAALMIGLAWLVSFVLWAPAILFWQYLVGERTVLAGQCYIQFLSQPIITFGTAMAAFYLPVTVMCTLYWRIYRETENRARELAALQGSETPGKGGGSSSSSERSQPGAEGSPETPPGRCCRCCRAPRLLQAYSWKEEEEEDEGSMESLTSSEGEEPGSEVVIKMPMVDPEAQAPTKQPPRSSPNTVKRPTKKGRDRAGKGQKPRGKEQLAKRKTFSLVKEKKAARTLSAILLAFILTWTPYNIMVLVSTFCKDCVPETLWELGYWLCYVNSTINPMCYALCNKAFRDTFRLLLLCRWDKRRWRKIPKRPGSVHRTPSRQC
Method: as §1, §2, §3, §4

Ki ([2]; M4, competition with [3H]NMS, mean ± SD, three experiments, read-out: Binding affinity, negative logarithm of Ki (converted)) | Response at Gα14 ([1]; 100 μM) | Structure (SMILES) | Activation of Gαq/11 types [1] | Ki [2] | Ki [3] | Response at Gα15 [1] | Activation magnitude at Gq, % of CBC ([1]; 100 μM)
 |  | c1csc(C[N+]23CCC(CC2)CC3)c1 [JB-8A] | did not activate any Gαq/11 type | 4.57 µM | 6.92 µM |  | 
 |  | C[N+]1(Cc2cccs2)CCOCC1 [JB-12-2] | activated all Gαq/11 types | 17 µM | 85.1 µM | activated | 
77.6 µM |  | COC(=O)C1=CCCN(Cc2cccs2)C1 [JB-13-1] | did not activate any Gαq/11 type |  | 115 µM |  | 
 | weak response | C[N+]1(Cc2cccs2)CC=CCC1 (centres unmarked) [JR-6, 1-methyl-1-[(thiophen-2-yl)methyl]-1,2,3,6-tetra hydropyridin-1-ium] |  |  |  | no response | approximately 30%
 |  | C[N+]1(Cc2ccc(Cl)s2)CC=CCC1 (centres unmarked) [PN-152, 1-[(5-chlorothiophen-2-yl)methyl]-1-methyl-1,2,3,6-tetrahydropyridin-1-ium] |  |  |  |  | 10%
